Experiments:
[1] = refractive index (Na D-line) (dimensionless); settings: 293.15 K; 101.33 kPa; Liquid; Standard Abbe refractometry
[2] = 293.15 K, 101.33 kPa, Liquid; for viscosity: Capillary tube (Ostwald / Ubbelohde) method
[3] = wn = mass fraction of the nth substance listed; settings: 293.15 K, 101.33 kPa, Liquid; for viscosity: Capillary tube (Ostwald / Ubbelohde) method; for mass density: Vibrating tube method
[4] = cn = amount concentration of the nth substance listed, in mol/dm3; settings: 293.15 K, 101 kPa, Liquid; for viscosity: Capillary tube (Ostwald / Ubbelohde) method; for electrical conductivity: Frequency=0.001 MHz, digital bridge-type conductivity meter; for mass density: Vibrating tube method

OCCO [1,2-ethanediol]
Settings	refractive index	viscosity [mPa·s]
[1]	1.4319	–
[2]	–	20.81

Settings	mass density [kg/m3]
[2], Vibrating tube method	1113.23

OCCO [1,2-ethanediol] + O
[3]
Settings	mass density [kg/m3]	viscosity [mPa·s]
w1 = 0.1	1011.1	1.293
w1 = 0.2	1024.49	1.671
w1 = 0.3	–	2.177
w1 = 0.4	1049.89	2.837
w1 = 0.5	1062.42	3.558
w1 = 0.6	–	4.724
w1 = 0.7	1085.2	6.36
w1 = 0.8	1095.34	8.003
w1 = 0.9	1103.7	14

O [water]
Settings	viscosity [mPa·s]
[2]	1.008

O [water] + OCCO
Settings	viscosity [mPa·s]
[3], w2 = 0	1.008

O=S(=O)([O-])[O-].[Zn+2] [zinc sulfate] + O
[4]
Settings	electrical conductivity [S/m]	mass density [kg/m3]	viscosity [mPa·s]
c1 = 5e-05	0.00119	998.22	–
c1 = 0.00011	0.00229	998.23	–
c1 = 0.00019	0.00391	998.25	–
c1 = 0.00042	0.0084	998.29	–
c1 = 0.00063	0.01218	998.32	–
c1 = 0.00083	0.0154	998.36	–
c1 = 0.00101	0.01833	998.39	–
c1 = 0.00127	0.02201	998.41	–
c1 = 0.0084	–	999.63	1.015
c1 = 0.0194	–	1001.48	1.022
c1 = 0.0403	–	1004.95	1.036
c1 = 0.0545	–	1007.37	1.045
c1 = 0.0714	–	1009.43	1.054
c1 = 0.0795	–	1011.4	1.062
c1 = 0.0979	–	1014.39	1.074
c1 = 0.1391	–	1021.1	1.103
c1 = 0.1756	–	1027.12	1.127
c1 = 0.1998	–	1030.93	1.144

— the NIST ThermoML archive (doi:10.1016/j.jct.2006.01.011)
